Entries after “also recorded” stand apart in the source; their conditions may differ.
Target: T1, human AR (Homo sapiens, UniProt P10275)
T1 sequence (P10275 1-920): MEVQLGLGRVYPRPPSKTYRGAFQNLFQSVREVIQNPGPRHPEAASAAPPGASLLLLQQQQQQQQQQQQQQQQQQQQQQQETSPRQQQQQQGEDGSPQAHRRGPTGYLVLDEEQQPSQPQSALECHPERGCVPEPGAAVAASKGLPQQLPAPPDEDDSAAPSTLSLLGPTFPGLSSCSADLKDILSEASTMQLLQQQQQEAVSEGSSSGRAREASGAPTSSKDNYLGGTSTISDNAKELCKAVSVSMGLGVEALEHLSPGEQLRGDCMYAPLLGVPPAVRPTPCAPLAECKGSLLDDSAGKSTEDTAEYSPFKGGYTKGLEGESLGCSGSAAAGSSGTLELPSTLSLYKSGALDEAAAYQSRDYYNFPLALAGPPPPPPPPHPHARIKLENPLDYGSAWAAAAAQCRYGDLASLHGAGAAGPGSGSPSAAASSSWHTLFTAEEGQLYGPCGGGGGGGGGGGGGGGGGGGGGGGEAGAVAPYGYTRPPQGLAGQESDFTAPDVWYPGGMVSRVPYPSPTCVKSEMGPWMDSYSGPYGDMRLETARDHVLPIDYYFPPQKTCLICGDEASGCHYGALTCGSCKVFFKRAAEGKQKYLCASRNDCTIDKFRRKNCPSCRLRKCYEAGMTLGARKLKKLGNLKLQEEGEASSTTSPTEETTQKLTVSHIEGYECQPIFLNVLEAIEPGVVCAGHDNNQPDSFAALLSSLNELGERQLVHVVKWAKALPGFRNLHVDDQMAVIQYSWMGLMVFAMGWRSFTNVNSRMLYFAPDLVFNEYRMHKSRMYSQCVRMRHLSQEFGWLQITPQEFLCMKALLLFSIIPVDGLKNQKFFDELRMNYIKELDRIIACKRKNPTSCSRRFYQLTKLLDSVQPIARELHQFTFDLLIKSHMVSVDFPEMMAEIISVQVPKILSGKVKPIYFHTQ
Assay: not given
Conditions: LXXLL motif-bound AF-2 interface of human AR; PLoS Biology 2:e274, 2004; read-out: Kd of LXXLL peptide; cited from earlier work

Molecule | Kd [nM]
SSRGLLWDLLTKDSR [LXXLL peptide co-crystallised with human AR AF-2] | 1800

Test system: PCa cell lines that contain AR
Assay: DHT-induced proliferation of prostate cancer cells (MTT assay)
Assay type: cell-based
Conditions: DHT-induced proliferation, MTT assay; structure-function series
Protocol: FIGS. 10A-E. D2 blocks proliferation of prostate cancer cells in vitro and in vivo (a) Effect of pretreatment with 100 nM of D1 and D2 on DHT-induced proliferation in multiple prostate cancer cell lines in MTT assay. Numbers are normalized to a baseline of 100, which represents the untreated rate of proliferation. (b) Effect of pretreatment with 100 nM of D1 and D2 on DHT-induced proliferation in LNCaPcells on a Cyquant assay. (c) Dose dependent curve of D2 on proliferation of LAPC4 cells. (d) Rescue of DHT induced proliferation by overexpression of PELP1 following suppression of DHT induced proliferation with 100 nM of D2. (e). Effect of direct intratumoral injections of D1 and D2 on the proliferation of prostate cancer xenografts in animal models: Following establishment of subcutaneous xenografts in animal models, daily direct intratumoral injections of D1 and D2 were performed. Bioluminesence imaging was used to track the growth of the tumors and the effect of D1 and D2 quantitated as shown in the graph.
The importance of PELP1 and AR interaction on DHT-mediated proliferation of prostate cancer cells were confirmed using rescue experiments, where D2 suppression of DHT-mediated proliferation was overcome by overexpression of PELP1 in LNCaP PCa cells.
(§1) In this experiment, cells were plated (2-10×10^3/well) in 96 well plates and subjected to androgen deprivation for 48 hours with phenol-red free RPMI and 1% charcoal stripped fetal bovine serum (CSF). Cells were then treated with either ethanol, EGF or DHT as a positive control for 48 hours. Peptidomimetics were added 2 hours prior to treatment. Cell proliferation was measured using the MTT colorimetric assay.
as §1, with “Cells” for “In this experiment, cells”, “96-well” for “96 well”, “ethanol” for “ethanol, EGF”, “hours” for “hours.”

Molecule | activity on the proliferation of prostate cancer cells (FIGS. 17, 19A-N)
COC(=O)c1ccc(NC(=O)c2ccc(NC(=O)CN)c(OCC(C)C)c2)c(OCC(C)C)c1 [D2-4] | maximal activity; also recorded: good activity
CC(C)COc1cc(C(=O)Nc2ccc(C(N)=O)cc2OCC(C)C)ccc1NC(=O)CCC(=O)O [D2-12] | good activity
CC(C)COc1cc(C(=O)Nc2ccc(C(=O)N(C(C)C)C(C)C)cc2OCC(C)C)ccc1NC(=O)CN [D2-23] | good activity
CC(C)COc1cc(C(=O)Nc2ccc(C(=O)NCCCCO)cc2OCC(C)C)ccc1NC(=O)CN [D2-26] | good activity
COC(=O)c1ccc(NC(=O)c2ccc([N+](=O)[O-])c(NCC(C)C)c2)c(NCC(C)C)c1 [D2-47] | good activity
C=C(C)COc1cc(C(=O)OC)ccc1NC(=O)c1ccc([N+](=O)[O-])c(OCC(=C)C)c1 [D29] | good activity
CC(C)COc1cc(C(=O)Nc2ccc(C(N)=O)cc2OCCc2ccc3ccccc3c2)ccc1NC(=O)c1ccc([N+](=O)[O-])c(OCC(C)C)c1 [TK6-R] | good activity

Source: US10618869B2, “Oligo-benzamide compounds and their use” (The Board of Regents of the University of Texas System, priority 2010, dated 2020)
